Literature values in patent publication US20040067887A1, “Human VNO receptor (R1)” (priority 2000, published 2004).

Key:
human VNO = conditions: for physiological responses after administration to the human VNO: administered to the human VNO
human brain = conditions: human volunteers; delivered non-specifically to the nasal cavity; no detectable odor (Sobel et al. 1999)

Row | Structure (SMILES) | physiological responses after administration to the human VNO (human VNO) | site specificity of physiological responses in vivo (human VNO; human subjects, VNO versus olfactory or respiratory epithelium (Monti-Bloch et al. 1994)) | activation of brain regions detected by fMRI (human brain)
1 | C[C@@]12C=CC[C@H]1[C@@H]1CCc3cc(O)ccc3[C@H]1CC2 [estra-1,3,5(10),16-tetraen-3-ol] | induce bradycardia, bradypnea, increases in core body temperature, and other physiological responses | – | –
2 | C[C@@]12C=CC[C@H]1[C@@H]1CCC3=CC(=O)CC[C@]3(C)[C@H]1CC2 [androsta-4,16-dien-3-one] | induce bradycardia, bradypnea, increases in core body temperature, and other physiological responses | – | –
3 | CC(=O)Oc1ccc2c(c1)CC[C@@H]1[C@@H]2CC[C@]2(C)C=CC[C@@H]12 [PH15, estra-1,3,5(10),16-tetraen-3yl acetate] | – | induces physiological responses in vivo only when applied specifically to the VNO | dose-dependent activation of the anterior medial thalamus, the inferior frontal gyrus, and other regions of the human brain
